Results taken from article PMC8510595, “Vanillin enones as selective inhibitors of the cancer associated carbonic anhydrase isoforms IX and XII. The out of the active site pocket for the design of selective inhibitors?” (Journal of Enzyme Inhibition and Medicinal Chemistry, 2021).
Read-outs that look alike come from different tables or passages of the source.

Legend:
Assay in all cases: stopped-flow CO2 hydration assay
Format in all cases: biochemical
hCA XII = target: T1, hCA XII (Homo sapiens, UniProt O43570); details: read-out: Ki (μM)^b / hCA XII
T1 construct: gene CA12; recombinant, obtained in the authors' laboratory; transmembrane isoform

hCA II = target: T2, hCA II (Homo sapiens, UniProt P00918)
T2 construct: gene CA2; recombinant, obtained in the authors' laboratory; cytosolic

hCA IX = target: T3, hCA IX (Homo sapiens, UniProt Q16790); details: read-out: Ki (μM)^b / hCA IX
T3 construct: gene CA9; recombinant, obtained in the authors' laboratory; transmembrane isoform

hCA I = target: T4, hCA I (Homo sapiens, UniProt P00915); details: read-out: Ki (μM)^b / hCA I
T4 construct: gene CA1; recombinant, obtained in the authors' laboratory; cytosolic
T4 sequence (P00915 2-261): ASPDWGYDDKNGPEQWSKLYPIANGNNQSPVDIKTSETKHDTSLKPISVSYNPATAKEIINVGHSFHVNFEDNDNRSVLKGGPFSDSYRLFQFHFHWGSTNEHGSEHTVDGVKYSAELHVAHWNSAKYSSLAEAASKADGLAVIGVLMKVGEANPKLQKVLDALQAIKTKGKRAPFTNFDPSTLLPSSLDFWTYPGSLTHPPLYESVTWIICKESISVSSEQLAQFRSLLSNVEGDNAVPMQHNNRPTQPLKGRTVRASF

T1 sequence (O43570 25-354 limits assumed): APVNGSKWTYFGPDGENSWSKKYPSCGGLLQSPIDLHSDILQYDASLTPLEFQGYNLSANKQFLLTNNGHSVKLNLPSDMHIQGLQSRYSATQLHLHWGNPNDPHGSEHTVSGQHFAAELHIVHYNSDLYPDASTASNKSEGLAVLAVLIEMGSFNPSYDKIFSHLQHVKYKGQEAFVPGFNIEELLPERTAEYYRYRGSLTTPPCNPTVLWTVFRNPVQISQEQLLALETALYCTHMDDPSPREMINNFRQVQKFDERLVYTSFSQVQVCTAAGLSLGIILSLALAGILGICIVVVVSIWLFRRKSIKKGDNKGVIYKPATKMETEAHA

Structure (SMILES)	Ki (hCA XII) [µM]	Ki (hCA II; read-out: Ki (μM)^b / hCA II) [µM]	Ki (hCA IX) [µM]	Ki (hCA I) [µM]	Ki (hCA II; read-out: Ki (μM)^b / hCA I) [µM]
COc1cc(/C=C/C(=O)C[C@@H]2O[C@H](CO)[C@@H](O)[C@H](O)[C@H]2O)ccc1O [compound 1, 1-(β-D-glucopyranosyl)-4–(4-hydroxy-3-methoxyphenyl)but-3-en-2-one]	4.8	> 100	30.8	71.6	
COc1cc(/C=C/C(=O)C[C@@H]2O[C@H](CO)[C@H](O)[C@H](O)[C@H]2O)ccc1O [compound 2, 1-(β-D-galactopyranosyl)-4–(4-hydroxy-3-methoxyphenyl)but-3-en-2-one]	2.5	> 100	20.8	80.5	
COc1cc(/C=C/C(=O)CC(C)C)ccc1O [compound 5, (E)-1–(4-Hydroxy-3-methoxyphenyl)-5-methylhex-1-en-3-one]	1.7		26.3	> 100	> 100

Results, then the molecule that gave them:

Ki (hCA XII) [µM]	Ki (hCA II; read-out: Ki (μM)^b / hCA II) [µM]	Ki (hCA IX) [µM]	Ki (hCA I) [µM]	Ki (hCA II; read-out: Ki (μM)^b / hCA I) [µM]	Structure (SMILES)
0.63	96.4	29.1	76.3		COc1cc(/C=C/C(=O)c2ccccc2)ccc1O [compound 6, (E)-3–(4-Hydroxy-3-methoxyphenyl)-1-phenylprop-2-en-1-one]
2.5		32	> 100	> 100	CCC(=O)/C=C/c1ccc(O)c(OC)c1 [compound 4, (E)-1–(4-Hydroxy-3-methoxyphenyl)pent-1-en-3-one]
6.4	82	> 100	92.6		COc1cc(/C=C/C(=O)c2ccc(Br)cc2)ccc1O [compound 7, (E)-1–(4-Bromophenyl)-3–(4-hydroxy-3-methoxyphenyl)prop-2-en-1-one]
